Data: patent US12240862B2, “Inhibitors of peptidylarginine deiminases” (Gilead Sciences, Inc., priority 2020, dated 2025)
pIC50: −log10 of the molar value.

biological target: T1, human PAD4 (Homo sapiens, UniProt Q9UM07); test: In vitro PAD4 BAEE biochemical assay; conditions: human PAD4, BAEE substrate; 5 nM PAD4, 2 mM calcium chloride, 3 mM BAEE; geometric mean of multiple experiments
T1 construct: human PAD4 (NM_012387), A2P663, was PCR amplified; His-SUMO (N, cleaved yes); made in house; host or cells: E. coli BL21(DE3)
T1 sequence (Q9UM07 2-663): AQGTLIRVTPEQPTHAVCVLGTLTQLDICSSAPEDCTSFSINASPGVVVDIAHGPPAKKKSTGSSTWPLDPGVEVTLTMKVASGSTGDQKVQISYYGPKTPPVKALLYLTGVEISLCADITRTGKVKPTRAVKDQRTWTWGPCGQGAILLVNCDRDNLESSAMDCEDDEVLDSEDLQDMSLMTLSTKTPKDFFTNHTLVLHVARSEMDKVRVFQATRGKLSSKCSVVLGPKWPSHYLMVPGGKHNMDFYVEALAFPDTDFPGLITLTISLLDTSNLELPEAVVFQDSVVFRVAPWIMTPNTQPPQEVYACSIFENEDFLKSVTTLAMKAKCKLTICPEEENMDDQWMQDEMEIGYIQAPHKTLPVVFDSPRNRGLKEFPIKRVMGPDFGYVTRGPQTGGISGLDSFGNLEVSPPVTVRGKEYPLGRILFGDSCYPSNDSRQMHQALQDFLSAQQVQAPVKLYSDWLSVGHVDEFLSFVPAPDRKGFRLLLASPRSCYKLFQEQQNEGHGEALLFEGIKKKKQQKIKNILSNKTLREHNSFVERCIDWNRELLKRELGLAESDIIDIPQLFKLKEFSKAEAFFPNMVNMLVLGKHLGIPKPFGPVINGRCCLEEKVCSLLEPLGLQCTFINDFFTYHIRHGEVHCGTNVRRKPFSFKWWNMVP
Summary of the method: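 Ammonia generated from BAEE serves as the readout, measured by o-phthalaldehyde after EDTA termination. Final conditions: 5 nM human PAD4 (SUMO tag cleaved), 2 mM CaCl2, 3 mM BAEE, pH 7.6 MOPS buffer, 25 °C for 2 h following a 30-min compound preincubation.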

In order of rising pIC50:
1. COc1cc(C(=O)N[C@H]2CNCC[C@H]2C)cc2nc(-c3cc4ccc(N(C(F)F)S(C)(=O)=O)nc4n3CC3CC3)c(C)n12 [Example 313, 2-[1-(cyclopropylmethyl)-6-[difluoromethyl (methylsulfonyl)amino]pyrrolo[2,3-b]pyridin-2-yl]-5-methoxy-3-methyl-~{N}-[(3~{R},4~{R})-4-methylpiperidin-3-yl]imidazo[1,2-a] pyridine-7-carboxamide]  4.62
2. COc1cc(C(=O)N2C[C@@H]3CC[C@H]2[C@H](N)C3)cc2nc(-c3cc4ccc(N(C(F)F)S(C)(=O)=O)nc4n3CC3CC3)c(C)n12 [Example 377, ~{N}-[2-[7-[(1~{R},4~{S}, 6~{R})-6-amino-2-azabicyclo[2.2.2]octane-2-carbonyl]-5-methoxy-3-methylimidazo[1,2-a]pyridin-2-yl]-1-(cyclopropylmethyl)pyrrolo [2,3-b]pyridin-6-yl]-~{N}-(difluoromethyl) methanesulfonamide]  4.74
3. COc1cc(C(=O)N2C[C@@H]3CCC[C@H]2[C@H]3N)cc2nc(-c3cc4ccc(N(C(F)F)S(C)(=O)=O)nc4n3CC3CC3)c(C)n12 [Example 329, N-[2-[7-[(1S,5S,8S)-8-amino-6-azabicyclo[3.2.1]octane-6-carbonyl]-5-methoxy-3-methyl-imidazo[1,2-a]pyridin-2-yl]-1-(cyclopropylmethyl)pyrrolo [2,3-b]pyridin-6-yl]-N-(difluoromethyl) methanesulfonamide]  5.25
4. CCc1cc2c(cc1F)cc(-c1nc3cc(C(=O)N4CCC[C@@H](N)C4)cc(OC)n3c1C)n2CC1CC1 [Example 589, [(3~{R})-3-aminopiperidin-1-yl]-[2-[1-(cyclopropylmethyl)-6-ethyl-5-fluoroindol-2-yl]-5-methoxy-3-methylimidazo[1,2-a]pyridin-7-yl]methanone]  5.57
5. COc1cc(C(=O)N2CCC[C@@H](N)C2)cc2nc(-c3cc4ccc(C(C)n5ccnn5)nc4n3CC3CC3)c(C)n12 (stereo partly drawn) [Example 537, [(3~{R})-3-aminopiperidin-1-yl]-[2-[1-(cyclopropylmethyl)-6-[1-(triazol-1-yl)ethyl]pyrrolo[2,3-b]pyridin-2-yl]-5-methoxy-3-methylimidazo[1,2-a]pyridin-7-yl]methanone]  6.24
6. COc1cc(C(=O)N2C[C@H]3C[C@H](O)[C@@H]2[C@@H]3N)cc2nc(-c3cc4ccc([C@@H](C)NC(=O)C(C)(C)C)nc4n3CC3CC3)c(C)n12 [Example 173, N-((R)-1-(2-(7-((1S,4R,6S,7R)-7-amino-6-hydroxy-2-azabicyclo [2.2.1]heptane-2-carbonyl)-5-methoxy-3-methylimidazo [1,2-a]pyridin-2-yl)-1-(cyclopropylmethyl)-1H-pyrrolo[2,3-b]pyridin-6-yl)ethyl)pivalamide]  6.30
7. COc1cc(C(=O)N2C[C@H]3CC[C@@H]2[C@@H]3N)cc2nc(-c3cc4ccc([C@@H](C)Nc5ncccn5)nc4n3CC3CC3)c(C)n12 [Example 266, ((1R,4R,7R)-7-amino-2-azabicyclo[2.2.1]heptan-2-yl)(2-(1-(cyclopropylmethyl)-6-((R)-1-(pyrimidin-2-ylamino)ethyl)-1H-pyrrolo[2,3-b]pyridin-2-yl)-5-methoxy-3-methylimidazo [1,2-a]pyridin-7-yl) methanone]  6.47
8. CS(=O)(=O)N(c1ccc2cc(-c3nc4cc(C(=O)N5C[C@H]6CC[C@@H]5[C@@H]6N)ccn4c3C3CC3)n(CC3CC3)c2n1)C(F)F [Example 396, N-[2-[7-[(1R,4R,7R)-7-amino-2-azabicyclo [2.2.1]heptane-2-carbonyl]-3-cyclopropyl-imidazo[1,2-a]pyridin-2-yl]-1-(cyclopropylmethyl)pyrrolo [2,3-b]pyridin-6-yl]-N-(difluoromethyl) methanesulfonamide]  6.71
9. CCN(c1ccc2cc(-c3nc4cc(C(=O)N5CCC[C@@H](N)C5)cc(OC)n4c3C)n(CC3CC3)c2n1)S(C)(=O)=O [Example 484, ~{N}-[2-[7-[(3~{R})-3-aminopiperidine-1-carbonyl]-5-methoxy-3-methylimidazo[1,2-a]pyridin-2-yl]-1-(cyclopropylmethyl)pyrrolo [2,3-b]pyridin-6-yl]-~{N}-ethylmethanesulfonamide]  6.84
10. COc1cc(C(=O)N2[C@H]3CC[C@@H]2[C@H](N)C3)cc2nc(-c3cc4ccc([C@@H](C)NC(=O)c5ccn(C(F)F)n5)nc4n3CC3CC3)c(C)n12 [Example 81, ~{N}-[(1~{R})-1-[2-[7-[(1~{R},2~{R},4~{S})-2-amino-7-azabicyclo[2.2.1]heptane-7-carbonyl]-5-methoxy-3-methylimidazo [1,2-a]pyridin-2-yl]-1-(cyclopropylmethyl)pyrrolo [2,3-b]pyridin-6-yl]ethyl]-1-(difluoromethyl)pyrazole-3-carboxamide]  6.95
11. COc1cc(C(=O)N2[C@H]3CC[C@@H]2[C@H](N)C3)cc2nc(-c3cc4ccc([C@@H](C)NC(=O)N(C)Cc5ccccc5)nc4n3CC3CC3)c(C)n12 [Example 240, 3-[(1~{R})-1-[2-[7-[(1~{R},2~{R},4~{S})-2-amino-7-azabicyclo[2.2.1]heptane-7-carbonyl]-5-methoxy-3-methylimidazo [1,2-a]pyridin-2-yl]-1-(cyclopropylmethyl)pyrrolo [2,3-b]pyridin-6-yl]ethyl]-1-benzyl-1-methylurea]  7.07
12. COc1cc(C(=O)N2[C@H]3CC[C@@H]2[C@H](N)C3)cc2nc(-c3cc4ccc(C5CCNC(=O)C5)nc4n3CC3CC3)c(C)n12 (stereo partly drawn) [Example 562, 4-[2-[7-[(1~{R},2~{R}, 4~{S})-2-amino-7-azabicyclo[2.2.1]heptane-7-carbonyl]-5-methoxy-3-methylimidazo[1,2-a]pyridin-2-yl]-1-(cyclopropylmethyl)pyrrolo[2,3-b]pyridin-6-yl]piperidin-2-one]  7.08
13. COc1cc(C(=O)N2[C@H]3CC[C@@H]2[C@H](N)C3)cc2nc(-c3cc4ccc([C@@H](C)NC(=O)N5CCOC[C@H]5C(F)(F)F)nc4n3CC3CC3)c(C)n12 [Example 200, (3~{S})-~{N}-[(1~{R})-1-[2-[7-[(1~{R},2~{R},4~{S})-2-amino-7-azabicyclo[2.2.1]heptane-7-carbonyl]-5-methoxy-3-methylimidazo [1,2-a]pyridin-2-yl]-1-(cyclopropylmethyl)pyrrolo [2,3-b]pyridin-6-yl]ethyl]-3-(trifluoromethyl)morpholine-4-carboxamide]  7.36
14. COc1cc(C(=O)N2[C@H]3CC[C@@H]2[C@H](N)C3)cc2nc(-c3cc4ccc([C@@H](C)NC(=O)c5ncco5)nc4n3CC3CC3)c(C)n12 [Example 73, ~{N}-[(1~{R})-1-[2-[7-[(1~{R},2~{R},4~{S})-2-amino-7-azabicyclo[2.2.1]heptane-7-carbonyl]-5-methoxy-3-methylimidazo [1,2-a]pyridin-2-yl]-1-(cyclopropylmethyl)pyrrolo [2,3-b]pyridin-6-yl]ethyl]-1,3-oxazole-2-carboxamide]  7.41
15. COc1cc(C(=O)N2[C@H]3CC[C@@H]2[C@H](N)C3)cc2nc(-c3cc4ccc([C@@H](C)NC(=O)c5ccc(C)nc5)nc4n3CC3CC3)c(C)n12 [Example 49, ~{N}-[(1~{R})-1-[2-[7-[(1~{R},2~{R},4~{S})-2-amino-7-azabicyclo[2.2.1]heptane-7-carbonyl]-5-methoxy-3-methylimidazo [1,2-a]pyridin-2-yl]-1-(cyclopropylmethyl)pyrrolo[2,3-b]pyridin-6-yl]ethyl]-6-methylpyridine-3-carboxamide]  7.65
